The target of test [1] is NR1/NR2B (Homo sapiens (Human), UniProt Q05586+Q13224). The test can be described thus: Cell assay: FDSS Ca2+ influx inhibition in HEK293 cells expressing NR1/NR2B.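 Note: Fluo-8 Ca2+ signal read on Hamamatsu FDSS 6000 after glutamate, glycine and Ca2+ challenge following 10 min compound preincubation, end/baseline fluorescence ratio compared with MK801 control.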 Conditions: Binned Activity.
In test [2] the target is NR1/NR2B (Homo sapiens (Human), UniProt Q13224). The description is as above. Conditions: read-out: NR2B NAM IC50.
Chain of NR1/NR2B (Homo sapiens (Human), UniProt Q13224) (Q13224 27-1484, other chains not shown): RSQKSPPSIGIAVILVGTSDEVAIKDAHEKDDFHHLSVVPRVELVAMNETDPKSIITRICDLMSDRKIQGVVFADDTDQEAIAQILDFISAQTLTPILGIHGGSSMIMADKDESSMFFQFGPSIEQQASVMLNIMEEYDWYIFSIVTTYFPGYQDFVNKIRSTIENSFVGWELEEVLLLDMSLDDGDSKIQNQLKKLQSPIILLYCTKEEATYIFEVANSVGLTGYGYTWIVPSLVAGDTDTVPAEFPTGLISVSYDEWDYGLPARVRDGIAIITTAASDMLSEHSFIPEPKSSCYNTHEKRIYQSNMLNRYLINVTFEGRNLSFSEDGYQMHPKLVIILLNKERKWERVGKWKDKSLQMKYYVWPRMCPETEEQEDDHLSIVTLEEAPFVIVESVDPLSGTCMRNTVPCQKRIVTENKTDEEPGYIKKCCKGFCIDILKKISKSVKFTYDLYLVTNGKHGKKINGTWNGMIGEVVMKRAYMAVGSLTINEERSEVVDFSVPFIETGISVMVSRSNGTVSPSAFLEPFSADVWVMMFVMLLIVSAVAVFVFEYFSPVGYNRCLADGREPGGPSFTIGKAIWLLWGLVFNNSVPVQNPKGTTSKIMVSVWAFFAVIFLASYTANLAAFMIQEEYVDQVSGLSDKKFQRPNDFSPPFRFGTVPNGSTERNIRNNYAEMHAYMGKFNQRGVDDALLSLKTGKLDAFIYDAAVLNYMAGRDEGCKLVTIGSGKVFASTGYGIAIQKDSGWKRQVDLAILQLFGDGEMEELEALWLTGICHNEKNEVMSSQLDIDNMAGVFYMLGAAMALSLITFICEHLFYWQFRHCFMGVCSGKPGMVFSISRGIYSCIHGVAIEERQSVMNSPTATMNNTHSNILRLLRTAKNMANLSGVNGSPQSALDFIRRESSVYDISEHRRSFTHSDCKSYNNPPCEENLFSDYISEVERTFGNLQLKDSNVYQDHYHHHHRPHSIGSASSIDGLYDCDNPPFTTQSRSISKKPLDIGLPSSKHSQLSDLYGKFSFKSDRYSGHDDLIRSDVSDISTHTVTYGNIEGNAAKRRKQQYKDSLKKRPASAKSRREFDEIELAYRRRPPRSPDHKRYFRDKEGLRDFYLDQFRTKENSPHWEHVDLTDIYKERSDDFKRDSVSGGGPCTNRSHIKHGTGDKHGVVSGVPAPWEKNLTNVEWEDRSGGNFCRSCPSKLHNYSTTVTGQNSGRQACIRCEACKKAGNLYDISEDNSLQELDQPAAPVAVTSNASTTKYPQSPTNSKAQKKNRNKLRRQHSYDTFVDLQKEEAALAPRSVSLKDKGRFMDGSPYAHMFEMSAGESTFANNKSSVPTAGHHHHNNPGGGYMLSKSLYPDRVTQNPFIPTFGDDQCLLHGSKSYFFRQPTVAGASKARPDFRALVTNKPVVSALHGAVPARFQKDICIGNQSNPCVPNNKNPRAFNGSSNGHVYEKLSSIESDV
Where [3] appears, read: HEK293 cells expressing NR1/NR2B, Ca2+ influx, binned NR2B NAM IC50.
Setting [4] is: HEK293 cells expressing NR1/NR2B, Ca2+ influx.

29 molecules from patent publication US10052306B2 (LUC THERAPEUTICS, INC., priority 2013, dated 2018) can be followed below.

The structures appear in SMILES notation. Where “and” joins values, the source holds several entries; their conditions need not be identical. Identical values can stand only once. Like-named read-outs stand apart in the source and are kept apart here. A value given as a limit tells only on which side of the number the result lay.

Chain of NR1/NR2B (Homo sapiens (Human), UniProt Q05586+Q13224) (Q13224 27-1484, other chains not shown): as above

As usually defined, the IC50 is the midpoint of a concentration-inhibition curve. As to `O=C(Nc1cccc(C(F)(F)F)c1)N1C[C@H]2C[C@@H](c3ccccc3)C[C@H]2C1` [Example 105, 5-phenyl-N-[3-(trifluoromethyl)phenyl]-octahydrocyclopenta[c] pyrrole-2-carboxamide], the IC50 is greater than 10 µM in test [1] (setting [3]) and 10 µM in test [2] (setting [4]).
Taken in the same sequence, the figures for `COc1ccc(C(=O)CN2C[C@@H]3C[C@@](O)(Cc4ccccc4)C[C@@H]3C2)cn1` [Example 161, 2-((3aR,5r,6aS)-5-benzyl-5-hydroxyhexahydrocyclo-penta[c]pyrrol-2(1H)-yl)-1-(6-methoxypyridin-3-yl)ethanone] were greater than 10 µM and 10 µM.
For the molecule `Oc1ccc([C@@H](O)CN2C[C@@H]3C[C@@](O)(Cc4ccccc4)C[C@@H]3C2)cc1F` [Example 180, (3aR,5R,6aS)-5-benzyl-2-((R)-2-(3-fluoro-4-hydroxyphenyl)-2-hydroxyethyl)octahydro-cyclopenta[c]pyrrol-5-ol], the IC50 was less than 0.1 µM in test [1] (setting [3]); 0.0223 µM and 0.0228 µM in test [2] (setting [4]).
`O=C(CN1C[C@H]2C[C@H](Cc3ccccc3)C[C@H]2C1)c1ccc(O)cc1` [Example 305, 2-[(3aR,5R,6aS)-5-benzyl-octahydrocyclopenta[c]pyrrol-2-yl]-1-(4-hydroxyphenyl)ethan-1-one]: the half-inhibitory concentration (IC50) in test [1] (setting [3]) was less than 0.1 µM; in test [2] (setting [4]), 0.0535 µM.
Turning to `COc1cccc([C@]2(O)C[C@H]3CN(CC(=O)c4ccccc4)C[C@H]3C2)c1` [Example 59, 2-[5-hydroxy-5-(3-methoxyphenyl)-octahydrocyclopenta[c]pyrrol-2-yl]-1-phenylethan-1-one], the IC50 in test [1] (setting [3]) is greater than 10 µM; in test [2] it was 10 µM.
With `O=C(Nc1ccccc1)N1C[C@H]2C[C@@H](c3ccccc3)C[C@H]2C1` [Example 102, N,5-diphenyl-octahydrocyclopenta[c] pyrrole-2-carboxamide], the figures for the IC50 in test [1] (setting [3]) and in test [2] (setting [4]) were greater than 10 µM and 10 µM, respectively.
`O=C(CN1C[C@@H]2C[C@@](O)(Cc3ccccc3)C[C@@H]2C1)c1cccc(-c2ccc(O)cc2)c1` [Example 275, 2-((3aR,5r,6aS)-5-benzyl-5-hydroxyhexahydrocyclo-penta[c]pyrrol-2(1H)-yl)-1-(4′-hydroxy-[1,1′-biphenyl]-3-yl)ethanone]: the half-inhibitory concentration (IC50) in test [1] (setting [3]) was greater than 10 µM; in test [2] (setting [4]) it was 10 µM.
Regarding `O=C(Cc1ccc(O)cc1)CN1C[C@@H]2C[C@@](O)(Cc3ccccc3)C[C@@H]2C1` [Example 145, 1-((3aR,5r,6aS)-5-benzyl-5-hydroxyhexahydrocyclo-penta[c]pyrrol-2(1H)-yl)-3-(4-hydroxyphenyl)propan-2-one], the IC50 in test [1] (setting [3]) is greater than 10 µM; in test [2] (setting [4]), 10 µM.
On to `CC(C(=O)c1ccc(O)cc1)N1C[C@H]2C[C@@H](CCc3ccccc3)C[C@H]2C1` (stereo partly drawn) [Example 325, 1-(4-hydroxyphenyl)-2-((3aR,5r,6aS)-5-phenethylhexa-hydrocyclo-penta[c]pyrrol-2(1H)-yl)propan-1-one], for which the IC50 in test [1] was 0.1 to 1 µM; in test [2] it was 0.192 µM.
As to `O=C1CCc2cc(C(=O)CN3C[C@@H]4C[C@@](O)(Cc5ccccc5)C[C@@H]4C3)ccc2N1` [Example 148, 6-(2-((3aR,5r,6aS)-5-benzyl-5-hydroxyhexahydrocyclo-penta[c]pyrrol-2(1H)-yl)acetyl)-3,4-dihydroquinolin-2(1H)-one], the IC50 in test [1] (setting [3]) was 0.1 to 1 µM; in test [2] (setting [4]), 0.137 µM.
Take `COc1ccc(C)cc1NC(=O)N1C[C@@H]2C[C@@](O)(c3ccccc3C)C[C@@H]2C1` [Example 23, 5-hydroxy-N-(2-methoxy-5-methylphenyl)-5-(2-methylphenyl)-octahydrocyclopenta[c] pyrrole-2-carboxamide]: the IC50 was greater than 10 µM in test [1] (setting [3]) and 10 µM in test [2] (setting [4]).
In the case of `O=C(CN1C[C@@H]2C[C@@](O)(Cc3ccccc3)C[C@@H]2C1)c1ccc(-c2ccc(F)cc2)cc1` [Example 262, 2-((3aR,5r,6aS)-5-benzyl-5-hydroxyhexahydrocyclo-penta[c]pyrrol-2(1H)-yl)-1-(4′-fluoro-[1,1′-biphenyl]-4-yl)ethanone], the figures for the IC50 in test [1] (setting [3]) and in test [2] (setting [4]) were greater than 10 µM and 10 µM, respectively.
With `COc1cccc(NC(=O)N2C[C@@H]3C[C@@](O)(Cc4ccccc4)C[C@@H]3C2)c1` [Example 119, (3aR,5r,6aS)-5-benzyl-5-hydroxy-N-(3-methoxy-phenyl)hexahydro-cyclopenta[c]pyrrole-2(1H)-carboxamide], the values for the IC50 in test [1] (setting [3]) and in test [2] (setting [4]) were greater than 10 µM and 10 µM, respectively.
`COc1cccc(C[C@]2(O)C[C@H]3CN(CC(=O)c4ccc(O)cn4)C[C@H]3C2)c1` [Example 193, 2-((3aR,5r,6aS)-5-hydroxy-5-(3-meth-oxybenzyl)hexahydro-cyclopenta[c]pyrrol-2(1H)-yl)-1-(5-hydroxypyridin-2-yl)ethanone]: the IC50 in test [1] (setting [3]) is greater than 10 µM; in test [2] (setting [4]) it was 10 µM.
For `O=C(CN1C[C@@H]2C[C@@](O)(Cc3ccc(F)cc3)C[C@@H]2C1)c1ccc(O)cn1` [Example 166, 2-((3aR,5r,6aS)-5-(4-fluorobenzyl)-5-hydroxyhexahydrocyclo-penta[c]pyrrol-2(1H)-yl)-1-(5-hydroxypyridin-2-yl)ethanone], the IC50 in test [1] (setting [3]) was 1 to 10 µM; in test [2] (setting [4]), 6.4 µM.
As for `Cc1ccc(NC(=O)N2C[C@@H]3C[C@@](O)(c4ccc(F)cc4)C[C@@H]3C2)cc1` [Example 36, 5-(4-fluorophenyl)-5-hydroxy-N-(4-methylphenyl)-octahydrocyclopenta[c] pyrrole-2-carboxamide], the IC50 in test [1] (setting [3]) is greater than 10 µM; in test [2] (setting [4]), 10 µM.
In the case of `O=C(CN1C[C@@H]2C[C@@](O)(CC3CC3)C[C@@H]2C1)c1ccc(O)cc1` [Example 210, 2-((3aR,5r,6aS)-5-(cyclopropylmethyl)-5-hydroxyhexahydrocyclo-penta[c]pyrrol-2(1H)-yl)-1-(4-hydroxyphenyl)ethanone], the IC50 was greater than 10 µM in test [1] (setting [3]) and 10 µM in test [2] (setting [4]).
Turning to `O=C(Nc1ccc(O)cc1)N1C[C@H]2C[C@@H](c3ccccc3)C[C@H]2C1` [Example 100, N-(4-hydroxyphenyl)-5-phenyl-octahydrocyclopenta[c] pyrrole-2-carboxamide], the IC50 is greater than 10 µM in test [1] (setting [3]) and 10 µM in test [2] (setting [4]).
On to `O=C(CN1C[C@H]2C[C@@H](c3ccccc3)C[C@H]2C1)c1ccc(O)cc1` [Example 114, 1-(4-hydroxyphenyl)-2-(5-phenylhexahydrocyclo-penta[c]pyrrol-2(1H)-yl)ethanone], for which the values for the IC50 in test [1] (setting [3]) and in test [2] (setting [4]) were 0.1 to 1 µM and 0.232 µM, respectively.
Regarding `O=C(CN1C[C@H]2C[C@@H](Cc3ccccc3)C[C@H]2C1)c1ccc(O)c(F)c1` [Example 307, 2-[(3aR,5S,6aS)-5-benzyl-octahydrocyclopenta[c]pyrrol-2-yl]-1-(3-fluoro-4-hydroxyphenyl) ethan-1-one], the IC50 in test [1] (setting [3]) was less than 0.1 µM; in test [2] (setting [4]), 0.0412 µM.
On to `Cc1cccc(NC(=O)N2C[C@@H]3C[C@@](O)(Cc4ccccc4)C[C@@H]3C2)c1` [Example 129, (3aR,5r,6aS)-5-benzyl-5-hydroxy-N-(m-tolyl)hexahydrocyclo-penta[c]pyrrole-2(1H)-carboxamide], for which the IC50 in test [1] (setting [3]) was greater than 10 µM; in test [2] (setting [4]) it was 10 µM.
Consider `COc1ccc(NC(=O)N2C[C@H]3C[C@@H](c4ccccc4)C[C@H]3C2)cc1` [Example 99, 2 N-(4-methoxyphenyl)-5-phenylhexahydrocyclo-penta[c]pyrrole-2(1H)-carboxamide], for which the results for the IC50 in test [1] (setting [3]) and in test [2] (setting [4]) were greater than 10 µM and 10 µM, respectively.
In the case of `CC(C)(C)c1ccc([C@]2(O)C[C@H]3CN(C(=O)Nc4ccccc4)C[C@H]3C2)cc1` [Example 54], the IC50 was greater than 10 µM in test [1] (setting [3]) and 10 µM in test [2] (setting [4]).
Taken in the same sequence, the figures for `Cc1ccc(NC(=O)N2C[C@@H]3C[C@@](O)(Cc4ccccc4)C[C@@H]3C2)cc1` [Example 125, (3aR,5r,6aS)-5-benzyl-5-hydroxy-N-(p-tolyl) hexahydrocyclopenta [c]pyrrole-2(1H)-carboxamide] were greater than 10 µM and 10 µM.
Take `COC(=O)c1ccc(NC(=O)N2C[C@@H]3C[C@@](O)(c4ccccc4)C[C@@H]3C2)cc1` [Example 28, methyl 4-[({5-hydroxy-5-phenyl-octahydrocyclopenta[c]pyrrol-2-yl}carbonyl)amino] benzoate]: the 50% inhibitory concentration (IC50) in test [1] (setting [3]) is greater than 10 µM; in test [2] (setting [4]), 10 µM.
Taken in the same sequence, the figures for `COC(=O)c1ccc(NC(=O)N2C[C@@H]3C[C@@](O)(c4ccccc4C)C[C@@H]3C2)cc1` [Example 22, Methyl 4-(5-hydroxy-5-(o-tolyl)octahydrocyclopenta [c]pyrrole-2-carboxamido)benzoate] were greater than 10 µM and 10 µM.
Regarding `CC(C)(C)c1ccc([C@]2(O)C[C@H]3CN(C(=O)Nc4cccc(C#N)c4)C[C@H]3C2)cc1` [Example 52], the IC50 in test [1] (setting [3]) is greater than 10 µM; in test [2] (setting [4]), 10 µM.
In the case of `O=C(CN1C[C@@H]2C[C@@](O)(Cc3ccccc3)C[C@@H]2C1)c1ccc(O)nc1` [Example 178, 2-[(3aR,5R,6aS)-5-benzyl-5-hydroxy-octahydrocyclopenta[c]pyrrol-2-yl]-1-(6-hydroxypyridin-3-yl)ethan-1-one], the results for the IC50 in test [1] (setting [3]) and in test [2] (setting [4]) were greater than 10 µM and 10 µM, respectively.
Take `O=C(CN1C[C@@H]2C[C@@](O)(Cc3ccccc3F)C[C@@H]2C1)c1ccc(O)cc1` [Example 225, 2-((3aR,5r,6aS)-5-(2-fluorobenzyl)-5-hydroxyhexahydrocyclo-penta[c]pyrrol-2(1H)-yl)-1-(4-hydroxyphenyl)ethanone]: the figures for the IC50 in test [1] (setting [3]) and in test [2] (setting [4]) were less than 0.1 µM and 0.0273 µM, respectively.
